Results on 20 compounds are retold here after patent US8580965B2, “Substituted sulfonamide compounds” (Gruenenthal GmbH, priority 2006, dated 2013).

In test [1] the target is T1, human B1R receptor (bradykinin 1 receptor) (Homo sapiens, UniProt P46663).
T1 construct: host or cells: CHO K1 cells (hB1R cells)
T1 sequence (P46663 1-353): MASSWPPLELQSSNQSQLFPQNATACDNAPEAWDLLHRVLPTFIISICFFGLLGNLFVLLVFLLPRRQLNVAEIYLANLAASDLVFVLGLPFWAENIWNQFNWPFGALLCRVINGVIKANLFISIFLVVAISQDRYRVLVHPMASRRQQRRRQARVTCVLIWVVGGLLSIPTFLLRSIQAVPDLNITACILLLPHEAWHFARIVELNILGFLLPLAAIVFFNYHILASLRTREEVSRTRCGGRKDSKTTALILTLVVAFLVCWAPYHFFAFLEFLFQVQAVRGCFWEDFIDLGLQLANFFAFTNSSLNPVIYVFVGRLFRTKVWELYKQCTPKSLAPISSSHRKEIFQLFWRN
Put plainly: FLIPR Ca2+ assay (Fluo-4) on CHO K1 cells stably transfected with the human B1R gene; % activation and % inhibition at 10 μM. It counts as cell-based. The following applies: CHO K1 hB1R cells, Ca2+ inflow after 0.5 nM Lys-Des-Arg9-bradykinin; for inhibition at 10 µM: CHO-K1, test substance 10 μM, read-out: B1R antagonism, human [10 μM] % inhibition. The method, boiled down:
(§1)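 Fluo-4 Ca2+ flux on FLIPR in stable hB1R or rB1R CHO K1 lines, two additions. Agonism: 10 µM compound versus 0.5 nM Lys-Des-Arg9-BK (human) or 100 nM Des-Arg9-BK (rat); antagonism: same agonists applied 10 min later, suppression expressed against maximum achievable inhibition.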

For test [2], the target named is T2, B1R receptor of the rat (bradykinin 1 receptor) (Rattus norvegicus, UniProt P97583).
T2 construct: host or cells: CHO K1 cells (rB1R cells)
T2 sequence (P97583 1-337): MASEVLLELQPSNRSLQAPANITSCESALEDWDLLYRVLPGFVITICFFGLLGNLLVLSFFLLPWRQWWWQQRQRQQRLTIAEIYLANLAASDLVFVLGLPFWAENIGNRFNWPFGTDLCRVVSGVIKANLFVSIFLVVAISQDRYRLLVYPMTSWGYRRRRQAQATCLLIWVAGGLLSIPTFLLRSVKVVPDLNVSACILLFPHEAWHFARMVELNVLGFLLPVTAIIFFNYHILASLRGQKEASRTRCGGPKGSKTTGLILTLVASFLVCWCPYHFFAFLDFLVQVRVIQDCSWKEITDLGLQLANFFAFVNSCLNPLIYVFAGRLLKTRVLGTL
Put plainly: FLIPR Ca2+ assay (Fluo-4) on CHO K1 cells stably transfected with the B1R gene of the rat; % activation and % inhibition at 10 μM. The test is classed as cell-based. The following applies: CHO K1 rB1R cells, Ca2+ inflow after 100 nM Des-Arg9-bradykinin; for inhibition at 10 µM: CHO-K1, test substance 10 μM, read-out: B1R antagonism, rat [10 μM] % inhibition. The method, boiled down: as §1

A word on the inhibition: it is the change of the read-out against control, counted positive when it falls. Turning to `Cc1cc(S(=O)(=O)N(C)CCOCC(=O)N2CCC(O)(c3cccnc3)CC2)c(Cl)cc1Cl` [Example 199, 2,4-dichloro-N-(2-(2-(4-hydroxy-4-(pyridin-3-yl)piperidin-1-yl)-2-oxoethoxy)ethyl)-N,5-dimethylphenylsulfonamide], the inhibition at 10 µM in test [1] came to 105%; in test [2] it was 98.2%.

`Cc1cc(C)c(S(=O)(=O)N2Cc3ccccc3CC2COCC(=O)N2CCC(O)(c3ccc(Cl)cc3)CC2)c(C)c1` (stereo not shown) [Example 200, 1-(4-(4-chlorophenyl)-4-hydroxypiperidin-1-yl)-2-((2-(mesitylsulfonyl)-1,2,3,4-tetrahydroisoquinolin-3-yl)methoxy)ethanone]: the inhibition at 10 µM in test [1] worked out at 29.8%; in test [2], 98.1%.

Regarding `Cc1cc(C)c(S(=O)(=O)N2Cc3ccccc3CC2COCC(=O)N2CCC(O)(Cc3ccccc3)CC2)c(C)c1` (stereo not shown) [Example 201, 1-(4-benzyl-4-hydroxypiperidin-1-yl)-2-((2-(mesitylsulfonyl)-1,2,3,4-tetrahydroisoquinolin-3-yl)methoxy)ethanone], the figures for the inhibition at 10 µM in test [1] and in test [2] were 14.9% and 80%, respectively.

On to `COc1cc(C)c(S(=O)(=O)N2CCC(COCC(=O)N3CCC(O)(c4ccc(Cl)cc4)CC3)C2)c(C)c1` (stereo not shown) [Example 202, 1-(4-(4-chlorophenyl)-4-hydroxypiperidin-1-yl)-2-((1-(4-methoxy-2,6-dimethylphenylsulfonyl)pyrrolidin-3-yl)methoxy)ethanone], for which the inhibition at 10 µM in test [1] came out at 99.2%; in test [2], 98.5%.

On to `O=C(COCC1CCCN1S(=O)(=O)c1cc(Cl)sc1Cl)N1CCC(O)(c2cccnc2)CC1` (stereo not shown) [Example 203, 2-((1-(2,5-dichlorothiophen-3-ylsulfonyl)pyrrolidin-2-yl)methoxy)-1-(4-hydroxy-4-(pyridin-3-yl)piperidin-1-yl)ethanone], for which the inhibition at 10 µM in test [1] amounted to 84.2%; in test [2], 85.1%.

Consider `O=C(COCC1CCCN1S(=O)(=O)c1c(Cl)cc(Cl)cc1Cl)N1CCC(O)(c2cccnc2)CC1` (stereo not shown) [Example 204, 1-(4-hydroxy-4-(pyridin-3-yl)piperidin-1-yl)-2-((1-(2,4,6-trichlorophenylsulfonyl)pyrrolidin-2-yl)methoxy)ethanone], for which the inhibition at 10 µM in test [1] was determined as 104%; in test [2], 98%.

Turning to `COc1cc(C)c(S(=O)(=O)N(CCOCC(=O)N2CCC(O)(c3ccc(Br)cc3)CC2)CC2CC2)c(C)c1C` [Example 205, N-(2-(2-(4-(4-bromophenyl)-4-hydroxypiperidin-1-yl)-2-oxoethoxy)ethyl)-N-(cyclopropylmethyl)-4-methoxy-2,3,6-trimethylphenylsulfonamide], the inhibition at 10 µM in test [1] came to 106%; in test [2] it was 100%.

With `COc1cc(C)c(S(=O)(=O)N(CCOCC(=O)N2CCC(O)(c3ccccc3)CC2)CC2CC2)c(C)c1C` [Example 206, N-(cyclopropylmethyl)-N-(2-(2-(4-hydroxy-4-phenylpiperidin-1-yl)-2-oxoethoxy)ethyl)-4-methoxy-2,3,6-trimethylphenylsulfonamide], the inhibition at 10 µM was 105% in test [1] and 100% in test [2].

For `COc1cc(C)c(S(=O)(=O)N(CCOCC(=O)N2CCC(O)(Cc3ccccc3)CC2)CC2CC2)c(C)c1C` [Example 207, N-(2-(2-(4-benzyl-4-hydroxypiperidin-1-yl)-2-oxoethoxy)ethyl)-N-(cyclopropylmethyl)-4-methoxy-2,3,6-trimethylphenylsulfonamide], the inhibition at 10 µM in test [1] was determined as 94.2%; in test [2] it was 99.2%.

In the case of `COc1cc(C)c(S(=O)(=O)N(CCOCC(=O)N2CCC(O)(c3cccc(C(F)(F)F)c3)CC2)CC2CC2)c(C)c1C` [Example 208, N-(cyclopropylmethyl)-N-(2-(2-(4-hydroxy-4-(3-(trifluoromethyl)phenyl)-piperidin-1-yl)-2-oxoethoxy)ethyl)-4-methoxy-2,3,6-trimethylphenylsulfonamide], the inhibition at 10 µM in test [1] was determined as 106%; in test [2] it was 100%.

Consider `COc1cc(C)c(S(=O)(=O)N(CCOCC(=O)N2CCC(O)(c3ccc(Cl)cc3)CC2)CC(C)C)c(C)c1C` [Example 209, N-(2-(2-(4-(4-chlorophenyl)-4-hydroxypiperidin-1-yl)-2-oxoethoxy)ethyl)-N-isobutyl-4-methoxy-2,3,6-trimethylphenylsulfonamide], for which the inhibition at 10 µM was found to be 105% in test [1] and 100% in test [2].

`COc1cc(C)c(S(=O)(=O)N(CCOCC(=O)N2CCC(O)(c3ccc(Br)cc3)CC2)CC(C)C)c(C)c1C` [Example 210, N-(2-(2-(4-(4-bromophenyl)-4-hydroxypiperidin-1-yl)-2-oxoethoxy)ethyl)-N-isobutyl-4-methoxy-2,3,6-trimethylphenylsulfonamide]: the inhibition at 10 µM amounted to 105% in test [1] and 101% in test [2].

Turning to `COc1cc(C)c(S(=O)(=O)N(CCOCC(=O)N2CCC(O)(Cc3ccccc3)CC2)CC(C)C)c(C)c1C` [Example 211, N-(2-(2-(4-benzyl-4-hydroxypiperidin-1-yl)-2-oxoethoxy)ethyl)-N-isobutyl-4-methoxy-2,3,6-trimethylphenylsulfonamide], the inhibition at 10 µM came to 99.6% in test [1] and 100% in test [2].

`COc1cc(C)c(S(=O)(=O)N(CCOCC(=O)N2CCC(O)(c3cccc(C(F)(F)F)c3)CC2)CC(C)C)c(C)c1C` [Example 212, N-(2-(2-(4-hydroxy-4-(3-(trifluoromethyl)phenyl)piperidin-1-yl)-2-oxoethoxy)ethyl)-N-isobutyl-4-methoxy-2,3,6-trimethylphenylsulfonamide]: the values for the inhibition at 10 µM in test [1] and in test [2] were 105% and 100%, respectively.

Take `COc1cc(C)c(S(=O)(=O)N2CCCC2COCC(=O)N2CCC(O)(c3ccc(Cl)c(C(F)(F)F)c3)CC2)c(C)c1` (stereo not shown) [Example 213, 1-(4-(4-chloro-3-(trifluormethyl)phenyl)-4-hydroxypiperidin-1-yl)-2-((1-(4-methoxy-2,6-dimethylphenylsulfonyl)pyrrolidin-2-yl)methoxy)ethanone]: the “B1R antagonism, human [10 μM] % inhibition” value in test [1] (test substance 10 μM) is 103.55%. The “B1R antagonism, rat [10 μM] % inhibition” value in test [2] (test substance 10 μM) turned out to be 101.25%.

On to `COc1cc(C)c(S(=O)(=O)N2CCCC2COCC(=O)N2CCC(O)(c3ccc(Br)cc3)CC2)c(C)c1` (stereo not shown) [Example 214, 1-(4-(4-bromophenyl)-4-hydroxypiperidin-1-yl)-2-((1-(4-methoxy-2,6-dimethylphenylsulfonyl)pyrrolidin-2-yl)methoxy)ethanone], for which the inhibition at 10 µM in test [1] was determined as 97.9%; in test [2], 101%.

For `COc1cc(C)c(S(=O)(=O)N2CCCC2COCC(=O)N2CCC(O)(c3ccccc3)CC2)c(C)c1` (stereo not shown) [Example 215, 1-(4-hydroxy-4-phenylpiperidin-1-yl)-2-((1-(4-methoxy-2,6-dimethylphenylsulfonyl)pyrrolidin-2-yl)methoxy)ethanone], the inhibition at 10 µM in test [1] was 104%; in test [2], 102%.

For `COc1cc(C)c(S(=O)(=O)N2CCCC2COCC(=O)N2CCC(O)(Cc3ccccc3)CC2)c(C)c1` (stereo not shown) [Example 216, 1-(4-benzyl-4-hydroxypiperidin-1-yl)-2-((1-(4-methoxy-2,6-dimethylphenylsulfonyl)pyrrolidin-2-yl)methoxy)ethanone], the inhibition at 10 µM in test [1] turned out to be 102%; in test [2], 100%.

Turning to `COc1cc(C)c(S(=O)(=O)N2CCCC2COCC(=O)N2CCC(O)(c3cccc(C(F)(F)F)c3)CC2)c(C)c1` (stereo not shown) [Example 217, 1-(4-hydroxy-4-(3-(trifluoromethyl)phenyl)piperidin-1-yl)-2-((1-(4-methoxy-2,6-dimethylphenylsulfonyl)pyrrolidin-2-yl)methoxy)ethanone], the inhibition at 10 µM was 105% in test [1] and 99.9% in test [2].

Consider `O=C(COCC1CCCN1S(=O)(=O)c1c(Cl)cccc1Cl)N1CCC(O)(c2ccc(Cl)c(C(F)(F)F)c2)CC1` (stereo not shown) [Example 218, 1-(4-(4-chloro-3-(trifluoromethyl)phenyl)-4-hydroxypiperidin-1-yl)-2-((1-(2,6-dichlorophenylsulfonyl)pyrrolidin-2-yl)methoxy)ethanone], for which the inhibition at 10 µM in test [1] worked out at 103%; in test [2], 102%.
